Test systems include UACC-257 melanoma; HS 578T breast; SN12C renal; NCI-H460 lung; MDA-N; SNB-19 CNS; UACC-62 melanoma; A549 NSCLC; UO-31 renal; TK-10 renal; CAKI-1 renal; LOX IMVI melanoma.
Assay in all cases: DTP human tumour cell line panel, 48 h

Values joined by “and” are separate entries in the source; they are usually repeats but may differ in a detail not shown here. Identical values can stand only once.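 Where inhibition never reached the appropriate level, the endpoint shown equals the highest concentration tested. Otherwise, values were interpolated linearly from a five-concentration, 48-hour dose response in 96-well plates. GI50 marks 50% less growth. Definition used: TGI = concentration required for complete inhibition of growth.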

Consider eleven molecules from PubChem BioAssay (NCI).

For the molecule `Cn1cc(S(=O)(=O)NC(=O)Nc2ccc(Cl)cc2)c(=O)c2ccc(F)cc21`, the TGI in the test with UACC-257 melanoma, in the test with HS 578T breast, in the test on SN12C renal, with NCI-H460 lung, with MDA-N and with SNB-19 CNS was above 100 µM each time. Moreover, the total growth inhibition concentration (TGI) in the test with UACC-62 melanoma is 63.4 µM; in the test on A549 NSCLC it was above 100 µM; in the test on UO-31 renal it was above 100 µM; in the test with TK-10 renal, above 100 µM; with CAKI-1 renal, above 100 µM; in the test on LOX IMVI melanoma it was above 100 µM.
As to `C[C@@H]1CC(=O)C[C@@H]2CC[C@H]3[C@@H]4CC[C@H](OC(=O)c5cccc6cc7ccccc7nc56)[C@H]4CC[C@@H]3[C@H]21`, the TGI with UACC-257 melanoma was 30.8 µM; with HS 578T breast, above 100 µM; with SN12C renal, 33.1 µM; with NCI-H460 lung, 30.8 µM; in the test on MDA-N, 26.3 µM; in the test on SNB-19 CNS, 37.5 µM. The TGI with UACC-62 melanoma worked out at 28.4 µM; in the test with A549 NSCLC, 83.2 µM; in the test with UO-31 renal, 31 µM; with TK-10 renal it was 65.9 µM; in the test on CAKI-1 renal, 33.7 µM; with LOX IMVI melanoma, 39.8 µM.
`CC(=O)OCC1OC(n2c(S)c(C#N)c(-c3ccccc3)c(C#N)c2=O)C(OC(C)=O)C(OC(C)=O)C1OC(C)=O` (centres undefined): the GI50 in the test on UACC-257 melanoma is > 100 µM and 36.2 µM; in the test on SN12C renal, > 100 µM and 25.2 µM; in the test on MDA-N, > 100 µM and 28.3 µM; in the test on UACC-62 melanoma, 82.3 µM and 23.2 µM; in the test with UO-31 renal it was > 68.1 µM and 29.1 µM; in the test with TK-10 renal it was 90.7 µM and 24.9 µM. For the same molecule, the GI50 in the test with LOX IMVI melanoma is > 100 µM and 17.2 µM. Further, the concentration for total growth inhibition (TGI) with UACC-257 melanoma is > 100 µM and 81.4 µM; in the test on HS 578T breast, above 100 µM; in the test on SN12C renal, > 100 µM and 81.7 µM; in the test with NCI-H460 lung, above 100 µM; with MDA-N, > 100 µM and 86.5 µM; in the test on SNB-19 CNS, above 100 µM. For the same molecule, the concentration for total growth inhibition (TGI) in the test with UACC-62 melanoma was > 100 µM and 59.5 µM; in the test with A549 NSCLC, above 100 µM; with UO-31 renal, > 100 µM and 87.3 µM; with TK-10 renal, > 100 µM and 86.5 µM; in the test on CAKI-1 renal, above 100 µM; in the test on LOX IMVI melanoma it was > 100 µM and 31 µM.
Consider `C(=Nc1ccc(-c2nc3ccccc3s2)cc1)c1ccc[nH]1`, for which the total growth inhibition concentration (TGI) was 31.2 µM with UACC-257 melanoma; 53.4 µM in the test with HS 578T breast; 44.8 µM in the test on SN12C renal; 38.1 µM in the test with NCI-H460 lung; 33.6 µM with MDA-N; above 100 µM in the test on SNB-19 CNS. Moreover, the TGI with UACC-62 melanoma was 30.7 µM; in the test on A549 NSCLC, above 100 µM; in the test on UO-31 renal, 53.5 µM; with TK-10 renal it was 64.2 µM; in the test with CAKI-1 renal, 78.3 µM; with LOX IMVI melanoma, 33.3 µM.
As for `O=C(NO)NCCCl`, the TGI in the test on UACC-257 melanoma, in the test with HS 578T breast, in the test on SN12C renal, in the test with NCI-H460 lung, in the test with MDA-N and in the test with SNB-19 CNS was above 100 µM each time. The concentration for total growth inhibition (TGI) in the test with UACC-62 melanoma, with A549 NSCLC, in the test with UO-31 renal, in the test on TK-10 renal, with CAKI-1 renal and in the test with LOX IMVI melanoma was above 100 µM each time.
Consider `COc1cc(OC)c2c(c1)OC(c1cccnc1)C(c1ccccc1)C2=O` (centres undefined), for which the TGI with UACC-257 melanoma, in the test on HS 578T breast, in the test with SN12C renal, in the test on NCI-H460 lung, in the test with MDA-N and with SNB-19 CNS was above 100 µM each time. Further, the concentration for total growth inhibition (TGI) in the test on UACC-62 melanoma, in the test with A549 NSCLC, with UO-31 renal, with TK-10 renal, with CAKI-1 renal and in the test on LOX IMVI melanoma was above 100 µM in each case.
Regarding `N/C1=C/C(=O)NC(=O)c2c(c3ccccc3oc2=O)C1`, the total growth inhibition concentration (TGI) in the test with UACC-257 melanoma, in the test with HS 578T breast, in the test on SN12C renal, in the test on NCI-H460 lung, with MDA-N and with SNB-19 CNS was above 100 µM throughout. The concentration for total growth inhibition (TGI) in the test with UACC-62 melanoma, in the test with A549 NSCLC, in the test with UO-31 renal, in the test on TK-10 renal, with CAKI-1 renal and in the test with LOX IMVI melanoma was above 100 µM in each case.
Turning to `CC(=O)OCC1OC(n2c(Br)nc3c2c(=O)n(C)c(=O)n3C)C(OC(C)=O)C1OC(C)=O` (centres undefined), the total growth inhibition concentration (TGI) with UACC-257 melanoma, in the test on HS 578T breast, with SN12C renal, in the test on NCI-H460 lung, in the test with MDA-N and with SNB-19 CNS was above 100 µM in each case. The concentration for total growth inhibition (TGI) in the test with UACC-62 melanoma, in the test with A549 NSCLC, in the test with UO-31 renal, with TK-10 renal, in the test with CAKI-1 renal and in the test on LOX IMVI melanoma was above 100 µM each time.
Take `COc1ccc(C2C(=O)c3c(OC)cc(OC)cc3OC2c2cccnc2)cc1` (centres undefined): the TGI in the test on UACC-257 melanoma, in the test on HS 578T breast, in the test with SN12C renal, in the test with NCI-H460 lung, in the test with MDA-N and in the test with SNB-19 CNS was above 100 µM each time. Also, the total growth inhibition concentration (TGI) with UACC-62 melanoma, in the test with A549 NSCLC, with UO-31 renal, in the test on TK-10 renal, with CAKI-1 renal and in the test with LOX IMVI melanoma was above 100 µM throughout.
Regarding `c1ccc2c(c1)cc1n2CCc2c-1[nH]c1ccccc21`, the total growth inhibition concentration (TGI) in the test with UACC-257 melanoma, in the test on HS 578T breast, with SN12C renal, with NCI-H460 lung, with MDA-N and in the test on SNB-19 CNS was above 10 µM in each case. The TGI in the test with UACC-62 melanoma, in the test with A549 NSCLC, in the test on UO-31 renal, with TK-10 renal, in the test on CAKI-1 renal and in the test with LOX IMVI melanoma was above 10 µM in each case.
For the molecule `O=C1C(c2c(O)[nH]c3ccc(Br)cc23)=Nc2ccc(Br)cc21`, the TGI is above 100 µM with UACC-257 melanoma; above 100 µM in the test with HS 578T breast; above 100 µM in the test with SN12C renal; above 100 µM in the test with NCI-H460 lung; 63 µM in the test with MDA-N; 92.4 µM with SNB-19 CNS. The TGI in the test on UACC-62 melanoma, in the test with A549 NSCLC, in the test on UO-31 renal, with TK-10 renal, in the test on CAKI-1 renal and in the test on LOX IMVI melanoma was above 100 µM throughout.
